# Reference: patent publication US20100292205A1, “Pyrimidone Compounds As GSK-3 Inhibitors” (PFIZER INC., priority 2006, published 2010)
# Target: T1, Recombinant human GSK3β (Homo sapiens, UniProt P49841)
# T1 construct: His-tag; made in house; host or cells: Sf9 insect cells / baculovirus
# Assay: GSK-3β (Glycogen Synthase Kinase) cell free enzyme assay
# Assay type: biochemical
# Settings: 1 μM; Examples 157-199
# Outline: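 This cell-free kinase assay measured [33P] transfer from [33P]ATP gamma phosphate into the biotinylated peptide bio-LC-S-R-H-S-S-P-H-Q-pS-E-D-E-E-E-OH. After 60 min at RT, reactions were stopped with 0.66 volume of PBS lacking Ca or Mg containing 12.5 mM EDTA, 0.25% Triton-X 100, 125 uM ATP and 6.2 mg/ml streptavidin SPA beads. Bead-bound radioactivity was counted as CPM on a Trilux scintillation counter.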
# T1 sequence (P49841 whole entry): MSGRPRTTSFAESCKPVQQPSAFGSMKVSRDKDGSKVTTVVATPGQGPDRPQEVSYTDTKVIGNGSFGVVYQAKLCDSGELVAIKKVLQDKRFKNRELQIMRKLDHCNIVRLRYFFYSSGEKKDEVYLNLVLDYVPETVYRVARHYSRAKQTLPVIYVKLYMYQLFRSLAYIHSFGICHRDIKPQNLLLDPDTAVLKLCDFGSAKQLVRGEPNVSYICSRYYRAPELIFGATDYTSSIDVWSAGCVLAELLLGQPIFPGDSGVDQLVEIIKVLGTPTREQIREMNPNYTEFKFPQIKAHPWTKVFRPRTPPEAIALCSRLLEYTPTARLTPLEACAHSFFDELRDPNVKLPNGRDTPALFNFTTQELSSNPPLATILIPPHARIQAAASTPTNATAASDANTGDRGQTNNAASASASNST
row,SMILES,Percent inhibition at 1 μM [%]
1,"Cn1c(N2[C@@H]3CC[C@H]2CN(S(=O)(=O)c2ccccc2)C3)nc(-c2ccncc2)cc1=O [Example 169, 3-Methyl-2-[(1R,5S)-3-(phenylsulfonyl)-38-diazabicyclo[3.2.1]oct-8-yl]-6-pyridin-4-ylpyrimidin-4(3H)-one]",92
2,"CN(c1nc(-c2ccncc2)cc(=O)n1C)C1CCCN(S(=O)(=O)c2ccccc2)CC1 (centres unmarked) [Example 182, 3-Methyl-2-{methyl[1-(phenylsulfonyl)azepan-4-yl]amino}-6-pyridin-4-ylpyrimidin-4(3H)-one]",96

# Same assay, conditions: 1 μM; Examples 157-199; read-out: Percent inhibition at 1 μM
row,SMILES,inhibition at 1 µM [%]
1,"Cn1c(N[C@H]2[C@@H]3CN(S(C)(=O)=O)C[C@@H]32)nc(-c2ccncc2)cc1=O [Example 157, 3-Methyl-2-{[(1R,5S,6s)-3-(methylsulfonyl)-3-azabicyclo[3.1.0]hex-6-yl]amino}-6-pyridin-4-ylpyrimidin-4(3H)-one]",61
2,"Cn1c(N[C@H]2CN(S(C)(=O)=O)C[C@@H]2F)nc(-c2ccncc2)cc1=O [Example 158, 2-{[(3S,4S)-4-Fluoro-1-(methylsulfonyl)pyrrolidin-3-yl]amino}-3-methyl-6-pyridin-4-ylpyrimidin-4(3H)-one]",74
3,"CN(c1nc(-c2ccncc2)cc(=O)n1C)C1CCCN(S(C)(=O)=O)CC1 (centres unmarked) [Example 159, 3-Methyl-2-{methyl[1-(methylsulfonyl)azepan-4-yl]amino}-6-pyridin-4-ylpyrimidin-4(3H)-one]",100
4,"CN(c1nc(-c2ccncc2)cc(=O)n1C)C1CCN(S(C)(=O)=O)C1 (centres unmarked) [Example 160, 3-Methyl-2-(methyl[1-(methylsulfonyl)pyrrolidin-3-yl]amino}-6-pyridin-4-ylpyrimidin-4(3H)-one]",79
5,"Cn1c(N[C@@H]2CN(S(C)(=O)=O)C[C@@H]2F)nc(-c2ccncc2)cc1=O [Example 161, 2-{[(3R,4S)-4-Fluoro-1-(methylsulfonyl)pyrrolidin-3-yl]amino}-3-methyl-6-pyridin-4-ylpyrimidin-4(3H)-one]",93
6,"CN(c1nc(-c2ccncc2)cc(=O)n1C)[C@@H]1CC[C@H]2N(S(C)(=O)=O)CC[C@@]2(C)C1 [Example 162, 3-Methyl-2-{methyl[(3a,S5,R7,aR)-3a-methyl-1-(methylsulfonyl)octahydro-1H-indo-5-yl]amino}-6-pyridin-4-ylpyrimidin-4(3H)-one]",84
7,"CCN(c1nc(-c2ccncc2)cc(=O)n1C)C1CCCN(S(C)(=O)=O)CC1 (centres unmarked) [Example 163, 2-{Ethyl[1-(methylsulfonyl)azepan-4-yl]amino}-3-methyl-6-pyridin-4-ylpyrimidin-4(3H)-one]",100
8,"CCN(c1nc(-c2ccncc2)cc(=O)n1C)C1CCCN(S(C)(=O)=O)C1 (centres unmarked) [Example 164, 2-{Ethyl[1-(methylsulfonyl)piperidin-3-yl]amino)-3-methyl-6-pyridin-4-ylpyrimidin-4(3H)-one]",82
9,"CCN(c1nc(-c2ccncc2)cc(=O)n1C)C1CCN(S(C)(=O)=O)CC1 [Example 165, 2-{Ethyl[1-(methylsulfonyl)piperidin-4-yl]amino}-3-methyl-6-pyridin-4-ylpyrimidin-4(3H)-one]",80
10,"CCN(C[C@H]1CCCN1S(C)(=O)=O)c1nc(-c2ccncc2)cc(=O)n1C [Example 166, 2-(Ethyl{[(2R)-1-(methylsulfonyl)pyrrolidin-2-yl]methyl}amino)-3-methyl-6-pyridin-4-ylpyrimidin-4(3H)-one]",74
11,"Cn1c(NC[C@H]2CCCN2S(C)(=O)=O)nc(-c2ccncc2)cc1=O [Example 168, 3-Methyl-2-({[(2R)-1-(methylsulfonyl)pyrrolidin-2-yl]methyl}amino)-6-pyridin-4-ylpyrimidin-4(3H)-one]",78
12,"Cn1c(NC2CCCN(S(=O)(=O)c3ccccc3)CC2)nc(-c2ccncc2)cc1=O (centres unmarked) [Example 170, 3-Methyl-2-{[1-(phenylsulfonyl)azepan-4-yl]amino}-6-pyridin-4-ylpyrimidin-4(3H)-one]",99
13,"Cn1c(NC2CN(S(=O)(=O)c3ccccc3)C2)nc(-c2ccncc2)cc1=O [Example 171, 3-Methyl-2-{[1-(phenylsulfonyl)azetidin-3-yl]amino}-6-pyridin-4-ylpyrimidin-4(3H)-one]",61
14,"Cn1c(N2CC[C@@H]3CN(S(=O)(=O)c4ccccc4)C[C@@H]32)nc(-c2ccncc2)cc1=O [Example 172, 3-Methyl-2-[(3a,R6,aR)-5-(phenylsulfonyl)hexahydro-pyrrolo[34-b]pyrrol-1(2H)-yl]-6-pyridin-4-ylpyrimidin-4(3H)-one]",81
15,"Cn1c(NC2CCCCN(S(=O)(=O)c3ccccc3)C2)nc(-c2ccncc2)cc1=O (centres unmarked) [Example 173, 3-Methyl-2-{[1-(phenylsulfonyl)azepan-3-yl]amino}-6-pyridin-4-ylpyrimidin-4(3H)-one]",51
16,"Cn1c(NC2CCN(S(=O)(=O)c3ccccc3)C2)nc(-c2ccncc2)cc1=O (centres unmarked) [Example 174, 3-Methyl-2-{[1-(phenylsulfonyl)pyrrolidin-3-yl]amino}-6-pyridin-4-ylpyrimidin-4(3H)-one]",95
17,"Cn1c(NC2CCN(S(=O)(=O)c3ccccc3)CC2)nc(-c2ccncc2)cc1=O [Example 175, 3-Methyl-2-{[1-(phenylsulfonyl)piperidin-4-yl]amino}-6-pyridin-4-ylpyrimidin-4(3H)-one]",49
18,"Cn1c(N[C@H]2CN(S(=O)(=O)c3ccccc3)C[C@@H]2F)nc(-c2ccncc2)cc1=O [Example 176, 2-{[(3S,4S)-4-Fluoro-1-(phenylsulfonyl)pyrrolidin-3-yl]amino}-3-methy!-6-pyridin-4-ylpyrimidin-4(3H)-one]",96
19,"Cn1c(N[C@H]2[C@@H]3CN(S(=O)(=O)c4ccccc4)C[C@@H]32)nc(-c2ccncc2)cc1=O [Example 177, 3-Methyl-2-{[(1R,5S,6s)-3-(phenylsulfonyl)-3-azabicyclo[3.1.0]hex-6-yl]amino}-6-pyridin-4-ylpyrimidin-4(3H)-one]",97
20,"CN(c1nc(-c2ccncc2)cc(=O)n1C)[C@H]1CC[C@H]2N(S(=O)(=O)c3ccccc3)CC[C@@]2(C)C1 [Example 178, 3-Methyl-2-{methyl[(3a,S5,S7,aR)-3a-methyl-1-(phenylsulfonyl)octahydro-1H-indol-5-yl]amino}-6-pyridin-4-ylpyrimidin-4(3H)-one]",100
21,"Cn1c(NC2CCCN(S(=O)(=O)c3ccccc3)C2)nc(-c2ccncc2)cc1=O (centres unmarked) [Example 179, 3-Methy-2-{[1-(phenylsulfonyl)piperidin-3-yl]amino}-6-pyridin-4-ylpyrimidin-4(3H)-one]",93
22,"CN(c1nc(-c2ccncc2)cc(=O)n1C)C1CCN(S(=O)(=O)c2ccccc2)C1 (centres unmarked) [Example 180, 3-Methyl-2-{methyl[1-(phenylsulfonyl)pyrrolidin-3-yl]amino}-6-pyridin-4-ylpyrimidin-4(3H)-one]",93
23,"CN(c1nc(-c2ccncc2)cc(=O)n1C)C1CCCN(S(=O)(=O)c2ccccc2)CC1 (centres unmarked) [Example 181, 3-Methyl-2-{methyl[1-(phenylsulfonyl)azepan-4-yl]amino}-6-pyridin-4-ylpyrimidin-4(3H)-one]",96
24,"CN(c1nc(-c2ccncc2)cc(=O)n1C)[C@@H]1CC[C@H]2N(S(=O)(=O)c3ccccc3)CC[C@@]2(C)C1 [Example 183, 3-Methyl-2-{methyl[(3,aS5,R7,aR)-3a-methyl-1-(phenylsulfonyl)octahydro-1H-indol-5-yl]amino}-6-pyridin-4-ylpyrimidin-4(3H)-one]",100

# Same assay, conditions: cell free enzyme assay; Examples 62-155
row,SMILES,IC50 [nM]
1,"CN(c1nc(-c2ccncc2F)cc(=O)n1C)[C@H]1[C@@H]2CN(C(=O)c3c(Cl)cccc3Cl)C[C@@H]21 [Example 149, 2-{[(1R,5S,6s)-3-(2,6-Dichlorobenzoyl)-3-azabicyclo[3.1.0]hex-6-yl](methyl)amino}-6-(3-fluoropyridin-4-yl)-3-methylpyrimidin-4(3H)-one]",3.81
2,"CN(c1nc(-c2ccncc2F)cc(=O)n1C)[C@H]1[C@@H]2CN(C(=O)c3ccccc3)C[C@@H]21 [Example 150, 2-{[(1R,5S,6s)-3-Benzoyl-3-azabicyclo[3.1.0]hex-6-yl](methyl)amino}-6-(3-fluoropyridin-4-yl)-3-methylpyrimidin-4(3H)-one]",1.51
3,"COc1ccc(C(=O)N2C[C@@H]3[C@H](C2)[C@H]3N(C)c2nc(-c3ccncc3F)cc(=O)n2C)c(OC)c1 [Example 151, 2-{[(1R,5S,6s)-3-(2,4-Dimethoxybenzoyl)-3-azabicyclo[3.1.0]hex-6-yl](methyl)amino}-6-(3-fluoropyridin-4-yl)-3-methylpyrimidin-4(3H)-one]",1.22
4,"CN(c1nc(-c2ccncc2F)cc(=O)n1C)[C@H]1[C@@H]2CN(C(=O)c3ccc(F)c(F)c3)C[C@@H]21 [Example 153, 2-{[(1R,5S,6s)-3-(3,4-Difluorobenzoyl)-3-azabicyclo[3.1.0]hex-6-yl](methyl)amino}-6-(3-fluoropyridin-4-yl)-3-methylpyrimidin-4(3H)-one]",7.23
5,"CN(c1nc(-c2ccncc2F)cc(=O)n1C)[C@H]1[C@@H]2CN(C(=O)c3ccc(C(F)(F)F)nc3)C[C@@H]21 [Example 154, 6-(3-Fluoropyridin-4-yl)-3-methyl-2-{methyl[(1R,5S,6s)-3-{[6-(trifluoromethyl)pyridin-3-yl]carbonyl}-3-azabicyclo[3.1.0]hex-6-yl]amino}pyrimidin-4(3H)-one]",26.4
6,"Cc1c(C(=O)N2C[C@@H]3[C@H](C2)[C@H]3N(C)c2nc(-c3ccncc3F)cc(=O)n2C)cnn1-c1ccccc1 [Example 155, 6-(3-Fluoropyridin-4-yl)-3-methyl-2-(methyl{(1R,5S,6s)-3-[(5-methyl-1-phenyl-1H-pyrazol-4-yl)carbonyl]-3-azabicyclo[3.1.0]hex-6-yl}amino)pyrimidin-4(3H)-one]",102
